The data set in a line: Stability study of venetoclax anhydrate under storage conditions (XRPD before and after storage). The class given is physicochemical. The protocol: FIG. 6 is representative XRPD overlay of venetoclax anhydrate before storage (bottom), venetoclax anhydrate after storage at 25° C./97% RH (relative humidity) for 7 days (middle), and venetoclax anhydrate after storage at 40° C./75% RH for 7 days (top).
X-Ray Powder Diffraction patterns were collected on a Bruker AXS C2 GADDS diffractometer using Cu Kα radiation (40 kV, 40 mA), automated XYZ stage, laser video microscope for auto-sample positioning and a HiStar 2-dimensional area detector. X-ray optics consists of a single Göbel multilayer mirror coupled with a pinhole collimator of 0.3 mm.
The beam divergence, i.e. the effective size of the X-ray beam on the sample, was approximately 4 mm. A θ-θ continuous scan mode was employed with a sample—detector distance of 20 cm which gives an effective 2θ range of 3.2° — 29.7° . Typically the sample would be exposed to the X-ray beam for 120 seconds. The software used for data collection was GADDS for XP/2000 4.1.43 and the data were analysed and presented using Diffrac Plus EVA v15.0.0.0.
Stability studies of venetoclax anhydrate under two storage conditions were also carried out. FIG. 6 is representative XRPD overlay of venetoclax anhydrate before storage (bottom), venetoclax anhydrate after storage at 25° C/97% RH (relative humidity) for 7 days (middle), and venetoclax anhydrate after storage at 40° C/75% RH for 7 days (top). […]

Consider `CC1(C)CCC(CN2CCN(c3ccc(C(=O)NS(=O)(=O)c4ccc(NCC5CCOCC5)c([N+](=O)[O-])c4)c(Oc4cnc5[nH]ccc5c4)c3)CC2)=C(c2ccc(Cl)cc2)C1` [venetoclax anhydrate, 4-(4-{[2-(4-chlorophenyl)-4,4-dimethylcyclohex-1-en-1-yl]methyl}piperazin-1-yl)-N-({3-nitro-4-[(tetrahydro-2H-pyran-4-ylmethyl)amino]phenyl}sulfonyl)-2-(1H-pyrrolo[2,3-b]pyridine-5-yloxy)benzamide], for which the “time the anhydrate remains stable on storage (XRPD overlay)” value is “at least 7 days” (storage at 25° C/97% RH (relative humidity) for 7 days) and “at least 7 days” (storage at 40° C/75% RH for 7 days).

(Values after patent publication US20220298158A1, “POLYMORPH OF VENETOCLAX AND METHOD FOR PREPARING THE POLYMORPH” (Johnson Matthey Public Limited Company, priority 2019, published 2022).)
